Assay results taken from patent US20260209215A1, “GLYCINE DERIVATIVES WITH P2X4 RECEPTOR-BLOCKING ACTIVITY AS DIAGNOSTICS AND FOR THE TREATMENT OF PAIN, INFLAMMATION, CANCER, AND OTHER P2X4 RECEPTOR-RELATED DISEASES” (RHEINISCHE-FRIEDRICH-WILHELMS-UNIVERSITÄT BONN, priority 2022, published 2026).

Target: T1, P2X4 receptor (Homo sapiens, UniProt Q99571)
T1 construct: expressed in transfected cells; host or cells: 1321N1 astrocytoma cells, retroviral vector pQCXIN, G418 selection, monoclones
T1 sequence (Q99571 1-388): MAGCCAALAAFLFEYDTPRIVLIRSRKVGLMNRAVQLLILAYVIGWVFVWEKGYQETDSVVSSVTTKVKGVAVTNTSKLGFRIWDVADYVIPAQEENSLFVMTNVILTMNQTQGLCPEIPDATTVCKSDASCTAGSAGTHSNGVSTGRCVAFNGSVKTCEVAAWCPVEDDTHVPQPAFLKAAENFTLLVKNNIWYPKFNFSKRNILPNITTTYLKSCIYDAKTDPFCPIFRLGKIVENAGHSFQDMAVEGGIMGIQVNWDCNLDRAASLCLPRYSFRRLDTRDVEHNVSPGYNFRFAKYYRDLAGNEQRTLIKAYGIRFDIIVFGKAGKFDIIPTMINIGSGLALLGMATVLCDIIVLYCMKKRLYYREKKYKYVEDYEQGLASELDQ
Test: Measurement of Ca2+ influx in transfected 1321N1 astrocytoma cells (P2X4 inhibitory potency)
Format: cell-based
Details: agonist-mediated Ca2+ influx, FLUO-4, 1321N1 astrocytoma cells; antagonists added 30 min before agonist
Source text: The rat, mouse, and human P2X4 DNA, respectively, were cloned into the retroviral vector pQCXIN. 1321N1 Astrocytoma cells were transfected with the DNA using a retroviral system as described previously. In brief, GP+envAM12 packaging cells were first transiently co-transfected with a retroviral vector to generate the retrovirus and with a vesicular stomatitis virus G protein (VSV-G) to pseudotype the virus and to increase their infection efficiency. The viruses containing the rat, mouse or human P2X4 receptor sequence were then used to create a stable astrocytoma cell line. P2X4 receptor-expressing cells were selected with G418 ([…]).
The selection of monoclones for rat and human P2X4 receptors was performed using the limited dilution method by plating the cells at very low cell densities (1 cell clone per well in 96-well plates). Cells were counted, and then several dilutions were made to obtain a concentration of […]. We subsequently added 100 µL of the diluted cell suspension into each well expecting to obtain on average 1 cell per well. After a few days the wells that contained single clones were labeled and transferred into 24 well plates. More than 20 clones were selected for each cell line and characterized in calcium influx assay.
Measurement of Ca^2+ influx in transfected 1321N1 astrocytoma cells
P2X receptor function was determined on the basis of agonist-mediated increases in cytosolic Ca^2+ concentration. The fluorescent Ca^2+chelating dye FLUO-4 was used as an indicator of the relative levels of intracellular Ca^2+ in a 96-well format using a fluorescence imaging plate reader (Novostar, BMG, Germany). Cells were grown to confluence in 96-well black-walled tissue culture plates and loaded with FLUO-4 AM ([…]) in Hank's balanced salt solution (HBSS, containing 10 mM HEPES, pH 7.3, and 1% Pluronic® F127) for 1 h at 23° C. After incubation, the loaded cells were washed with the same buffer to remove extracellular FLUO-4 AM. Compound solutions were prepared in HBSS (containing 20 mM HEPES, pH 7.3) or DMSO depending on their solubility. […] Fluorescence intensity was measured at 520 nm for 30 s at 0.4 s intervals. Buffer or test compounds were injected sequentially into separate wells using the automatic pipetting device. At least three independent experiments were performed in triplicate or duplicate. Antagonists were added 30 min before the addition of agonists. The assays were performed in a final volume of 200 μL. Compounds were tested at 7-8 different concentrations spanning three orders of magnitude of concentrations. Statistical significances were calculated using the unpaired two-tailed t-test.

Structure (SMILES) | IC50 [nM]
Cc1ccc(-c2nc(C3CC3)ns2)cc1NCC(=O)N1CCc2c(OCC(C)(C)O)cccc21 [Example 38, 2-((5-(3-cyclopropyl-1,2,4-thiadiazol-5-yl)-2-methylphenyl)amino)-1-(4-(2-hydroxy-2-methylpropoxy)-indolin-1-yl)ethan-1-one] | 20 to 39
O=C(CNc1cc(-c2nc(Cl)ns2)ccc1Cl)N1CCc2c(O)cccc21 [Example 39, 2-((2-chloro-5-(3-chloro-1,2,4-thiadiazol-5-yl)phenyl)amino)-1-(4-hydroxyindolin-1-yl) ethan-1-one] | 20 to 39
Cc1ccc(-c2nc(C(F)F)ns2)cc1NCC(=O)N1CCc2c1cccc2C(C)(C)O [Example 40, 2-((5-(3-(difluoromethyl)-1,2,4-thiadiazol-5-yl)-2-methylphenyl)amino)-1-(4-(2-hydroxypropan-2-yl)indolin-1-yl) ethan-1-one] | 20 to 39
Cc1noc(-c2ccc(F)c(NCC(=O)N3CCc4c(C(O)C(F)(F)F)cccc43)c2)n1 (stereo not drawn) [Example 41, 2-((2-fluoro-5-(3-methyl-1,2,4-oxadiazol-5-yl)phenyl)amino)-1-(4-(2,2,2-trifluoro-1-hydroxyethyl)indolin-1-yl)ethan-1-one] | 20 to 39
COc1ccc2c(n1)CCN2C(=O)CNc1cc(-c2nc(C)ns2)ccc1C [Example 42, 1-(5-methoxy-2,3-dihydro-1H-pyrrolo[3,2-b]pyridin-1-yl)-2-((2-methyl-5-(3-methyl-1,2,4-thiadiazol-5-yl)phenyl)-amino)ethan-1-one] | 20 to 39
Cc1ccc(-c2ccc(F)c(NCC(=O)N3CCc4c(OCC(C)(C)O)cccc43)c2)o1 [Example 43, 2-((2-fluoro-5-(5-methylfuran-2-yl)phenyl)amino)-1-(4-(2-hydroxy-2-methylpropoxy)-indolin-1-yl)ethan-1-one] | 20 to 39
Cc1nsc(-c2ccc(C)c(NCC(=O)N3CCc4c(NCC(C)(C)O)cccc43)c2)n1 [Example 44, 1-(4-((2-hydroxy-2-methylpropyl)amino)indolin-1-yl)-2-((2-methyl-5-(3-methyl-1,2,4-thiadiazol-5-yl)phenyl)-amino)ethan-1-one] | 20 to 39
CCc1nsc(-c2ccc(C)c(NCC(=O)N3CCc4c(C(=O)N5CCN(C)CC5)cccc43)c2)n1 [Example 45, 2-((5-(3-ethyl-1,2,4-thiadiazol-5-yl)-2-methylphenyl)amino)-1-(4-(4-methylpiperazine-1-carbonyl)indolin-1-yl) ethan-1-one] | 20 to 39
Cc1nsc(-c2ccc(C)c(NCC(=O)N3CCc4c(NS(C)(=O)=O)cccc43)c2)n1 [Example 46, N-(1-((2-methyl-5-(3-methyl-1,2,4-thiadiazol-5-yl)phenyl)glycyl)indolin-4-yl)methanesulfonamide] | 20 to 39
Cc1noc(-c2ccc(C)c(NCC(=O)N3CCc4c(OCCC(C)(C)O)cccc43)c2)n1 [Example 47, 1-(4-(3-hydroxy-3-methylbutoxy)indolin-1-yl)-2-((2-methyl-5-(3-methyl-1,2,4-oxadiazol-5-yl)phenyl)amino)ethan-1-one] | 20 to 39
Cc1nsc(-c2ccc(C)c(NCC(=O)N3CCc4c3cccc4-n3ccnc3)c2)n1 [Example 48, 1-(4-(1H-imidazol-1-yl)indolin-1-yl)-2-((2-methyl-5-(3-methyl-1,2,4-thiadiazol-5-yl)phenyl)amino)ethan-1-one] | 20 to 39
Cc1noc(-c2ccc(C)c(NCC(=O)N3CCc4c(OCC(C)(C)O)cccc43)c2)n1 [Example 49, 1-(4-(2-hydroxy-2-methylpropoxy)indolin-1-yl)-2-((2-methyl-5-(3-methyl-1,2,4-oxadiazol-5-yl)phenyl)amino)ethan-1-one] | 40 to 69
Cc1ccc(-c2nc(C3CC3)no2)cc1NCC(=O)N1CCc2c(OCC(C)(C)O)cccc21 [Example 50, 2-((5-(3-cyclopropyl-1,2,4-oxadiazol-5-yl)-2-methylphenyl)amino)-1-(4-(2-hydroxy-2-methylpropoxy)-indolin-1-yl)ethan-1-on] | 40 to 69
Cc1nsc(-c2ccc(C)c(NCC(=O)N3CCc4c3cccc4S(N)(=O)=O)c2)n1 [Example 51, 1-((2-methyl-5-(3-methyl-1,2,4-thiadiazol-5-yl)phenyl)glycyl)-indoline-4-sulfonamide] | 40 to 69
Cc1nsc(-c2ccc(C)c(NCC(=O)N3CCc4ccccc43)c2)n1 [Example 52, 1-(indolin-1-yl)-2-((2-methyl-5-(3-methyl-1,2,4-thiadiazol-5-yl)phenyl)amino)ethan-1-one] | 40 to 69
Cc1noc(-c2ccc(F)c(NCC(=O)N3CCc4c3cccc4C(C)(C)O)c2)n1 [Example 53, 2-((2-fluoro-5-(3-methyl-1,2,4-oxadiazol-5-yl)phenyl)amino)-1-(4-(2-hydroxypropan-2-yl)-indolin-1-yl)ethan-1-one] | 20 to 39
Cc1nsc(-c2ccc(C)c(NCC(=O)N3CCc4c3cccc4N3CC(=O)NC3=O)c2)n1 [Example 54, 1-(1-((2-methyl-5-(3-methyl-1,2,4-thiadiazol-5-yl)phenyl)glycyl)indolin-4-yl) imidazolidine-2,4-dione] | 70 to 99
Cc1nsc(-c2ccc(C)c(NCC(=O)N3CCc4c3cccc4C3(O)COC3)c2)n1 [Example 55, 1-(4-(3-hydroxyoxetan-3-yl)indolin-1-yl)-2-((2-methyl-5-(3-methyl-1,2,4-thiadiazol-5-yl)phenyl)amino)ethan-1-one] | 0.1 to 19
CCc1nsc(-c2ccc(F)c(NCC(=O)N3CCc4c(N5CC(O)C5)cccc43)c2)n1 [Example 56, 2-((5-(3-ethyl-1,2,4-thiadiazol-5-yl)-2-fluorophenyl)amino)-1-(4-(3-hydroxyazetidin-1-yl)indolin-1-yl)ethan-1-one] | 0.1 to 19
COC(=O)C1CN(C(=O)CNc2cc(-c3nc(C)ns3)ccc2C)c2ccccc21 (stereo not drawn) [Example 57, methyl 1-((2-methyl-5-(3-methyl-1,2,4-thiadiazol-5-yl)-phenyl)glycyl)indoline-3-carboxylate] | > 100
Cc1nsc(-c2ccc(C)c(NCC(=O)N3CC(CCO)c4ccccc43)c2)n1 (stereo not drawn) [Example 58, 1-(3-(2-hydroxyethyl)indolin-1-yl)-2-((2-methyl-5-(3-methyl-1,2,4-thiadiazol-5-yl)phenyl)amino)ethan-1-one] | > 100
CNC(=O)C1CN(C(=O)CNc2cc(-c3nc(C)ns3)ccc2C)c2ccccc21 (stereo not drawn) [Example 59, N-methyl-1-((2-methyl-5-(3-methyl-1,2,4-thiadiazol-5-yl)phenyl)glycyl) indoline-3-carboxamide] | > 100
Cc1noc(-c2ccc(F)c(NCC(=O)N3CCc4c3cccc4C(C)(O)CO)c2)n1 (stereo not drawn) [Example 60, 1-(4-(1,2-dihydroxypropan-2-yl)indolin-1-yl)-2-((2-fluoro-5-(3-methyl-1,2,4-oxadiazol-5-yl)phenyl)amino)ethan-1-one] | 40 to 69
Cc1ccc(-c2nc(C(F)F)ns2)cc1NCC(=O)N1CCc2c1cccc2C(C)(O)CO (stereo not drawn) [Example 61, 2-((5-(3-(difluoromethyl)-1,2,4-thiadiazol-5-yl)-2-methylphenyl)amino)-1-(4-(1,2-dihydroxypropan-2-yl)indolin-1-yl)ethan-1-one] | 0.1 to 19
Cc1nsc(-c2ccc(C)c(NCC(=O)N3CCc4c3cccc4C(C)(F)CO)c2)n1 (stereo not drawn) [Example 63, 1-(4-(2-fluoro-1-hydroxypropan-2-yl)indolin-1-yl)-2-((2-methyl-5-(3-methyl-1,2,4-thiadiazol-5-yl)phenyl)amino)ethan-1-one] | 0.1 to 19
Cc1nsc(-c2ccc(C)c(NCC(=O)N3CCc4c3cccc4[C@@](C)(O)CO)c2)n1 [Example 64, 1-(4-(1,2-dihydroxypropan-2-yl)indolin-1-yl)-2-((2-methyl-5-(3-methyl-1,2,4-thiadiazol-5-yl)phenyl)amino)ethan-1-one] | 0.1 to 19
Cc1nsc(-c2ccc(C)c(NCC(=O)N3CCc4c3cccc4[C@](C)(O)CO)c2)n1 [Example 65, 1-(4-(1,2-dihydroxypropan-2-yl)indolin-1-yl)-2-((2-methyl-5-(3-methyl-1,2,4-thiadiazol-5-yl)phenyl)amino)ethan-1-one] | 0.1 to 19
